Reference: publication PMC11141866, “Pyrimidine depletion enhances targeted and immune therapy combinations in acute myeloid leukemia” (JCI Insight, 2024)
“And” between values parts separate entries of the source, which are not always exact repeats. Identical values can stand only once. Like-named read-outs stand apart in the source and are kept apart here.

Legend:
MOLM-13 = test: MTS proliferation assay, MOLM-13; type: cell-based; conditions: Homo sapiens; MOLM-13, 96-hour treatment; read-out: IC50 (MTS proliferation)
Procedure: (§1) A total of 10,000–20,000 cells from different AML lines or 50,000–75,000 cells of primary AML blasts were treated in a 96-well plate for 72 hours or 96 hours at 37°C, 5% CO2. CellTiter 96 Aqueous MTS reagent (Promega) was added to cells followed by a 3-hour incubation at 37°C, 5% CO2. The absorbance was measured at 490 nm using DTX 880 plate reader, and the IC50 was calculated using GraphPad Prism.

LogD = type: physicochemical; conditions: pH 7.4
Description: (§2) Supplement jciinsight-9-173646-s083.xlsx, sheet "Supplemental Table S.2." | column: HOSU-53

primary AML samples = test: MTS proliferation assay, primary AML samples; type: cell-based, human; parameters: MTS proliferation data value: unit not given here; conditions: 96 h; for MTS proliferation data value: replicates; for IC50: Homo sapiens
Procedure: as §1

CYP 3A4 = CYP 3A4 (Homo sapiens, UniProt P08684); test: CYP inhibition 3A4; type: in vitro ADME
Sequence of CYP 3A4 (P08684 whole entry): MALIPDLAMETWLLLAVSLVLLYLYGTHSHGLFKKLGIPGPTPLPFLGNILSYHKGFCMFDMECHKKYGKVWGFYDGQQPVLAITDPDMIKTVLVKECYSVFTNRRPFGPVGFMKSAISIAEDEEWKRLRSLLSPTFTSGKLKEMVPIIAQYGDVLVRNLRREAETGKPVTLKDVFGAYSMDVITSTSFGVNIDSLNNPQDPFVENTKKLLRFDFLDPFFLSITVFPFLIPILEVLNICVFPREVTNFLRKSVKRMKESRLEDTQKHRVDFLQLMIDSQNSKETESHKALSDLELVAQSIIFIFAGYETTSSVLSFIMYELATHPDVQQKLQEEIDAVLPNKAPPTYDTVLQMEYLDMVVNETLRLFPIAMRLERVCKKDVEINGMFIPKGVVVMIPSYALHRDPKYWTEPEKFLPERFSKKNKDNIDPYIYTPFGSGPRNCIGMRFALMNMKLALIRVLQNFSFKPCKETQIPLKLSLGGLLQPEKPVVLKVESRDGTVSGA
Description: as §2

[1] = system: primary AML patient sample; test: Flow cytometry CD11b/CD14 differentiation, primary AML long-term culture; type: cell-based, human; conditions: 7 days LTC
Procedure: Cells were thawed in 50% FBS RPMI and then cultured in StemSpan (StemCell Technologies) media supplemented with human FLT3L, SCF, GM-CSF, G-CSF, IL-3, IL-6, TPO, and EPO cytokines for 7 days (LTC).
After 72 hours or 7 days of treatment of DHODHi, cells were collected and washed with PBS, blocked with human Fc block (BioLegend), and stained with antibodies for 30 minutes on ice. Antibodies were washed off and cells resuspended in FACS buffer (2% FBS, 2 mM NaN3, Dulbecco’s PBS) for analysis using BD LSRFortessa or Cytek Aurora spectral flow cytometer. Live/dead exclusion was done using LIVE/DEAD Fixable Near-IR (Invitrogen). All antibodies were purchased from BioLegend except CD47, which was purchased from BD Biosciences: CD11b clone M1/70, CD38 clone HIT2, CD14 clone M5E2, CD47 clone B6H12, CD33 clone WM53, CD3 clone UCHT1, CD19 clone HIB19, and CD45 clone HI30.
Supplemental Figure S.2. […] A).
Flow cytometry analysis of viable primary AML patient samples (n=10) treated in vitro for seven days (long term culture, LTC). Live cells were measured using LIVE/DEAD™ Fixable Near-IR (NIR) gated on singlet cells. […] Images were taken using BioTek Cytation 5 Cell Imaging Multimode Reader at 20x magnification. […]

CCCCOc1cccc(-c2ccc(-c3cc(C(=O)O)c4cc(F)ccc4n3)cc2)c1 [HOSU-53]
IC50 (MOLM-13): 0.013 µM
logD (LogD): 4.36
MTS proliferation data value (primary AML samples; 0.25 µM, Pt.1): 18.4884 and 20.0581 and 18.3139
MTS proliferation data value (primary AML samples; 0.25 µM, Pt.2): 32.3851 (2×) and 33.2604
MTS proliferation data value (primary AML samples; 0.25 µM, Pt.3): 55.8692 and 53.1947
MTS proliferation data value (primary AML samples; 0.25 µM, Pt.4): 65.8976 and 67.7546 and 63.7029
MTS proliferation data value (primary AML samples; 0.25 µM, Pt.5): 79.2706 and 80.6142 and 76.9674
MTS proliferation data value (primary AML samples; 0.25 µM, Pt.6): 33.7613 and 67.7492 and 73.4139
MTS proliferation data value (primary AML samples; 0.25 µM, Pt.7): 62.3298 and 55.7489 and 55.295
MTS proliferation data value (primary AML samples; 0.25 µM, Pt.8): 107.765 and 102.823 and 101.765
MTS proliferation data value (primary AML samples; 0.5 µM, Pt.1): 16.3954 and 17.2674 and 16.2209
MTS proliferation data value (primary AML samples; 0.5 µM, Pt.2): 27.5711 and 28.884 and 28.2276
MTS proliferation data value (primary AML samples; 0.5 µM, Pt.3): 49.3314 and 49.0342 and 46.211
MTS proliferation data value (primary AML samples; 0.5 µM, Pt.4): 54.2487 and 57.2876 and 57.4564
MTS proliferation data value (primary AML samples; 0.5 µM, Pt.5): 73.1286 and 69.0979 and 69.2898
MTS proliferation data value (primary AML samples; 0.5 µM, Pt.6): 55.9668 and 65.2568 and 57.5529
MTS proliferation data value (primary AML samples; 0.5 µM, Pt.7): 44.4024 and 40.0908 and 37.1407
MTS proliferation data value (primary AML samples; 0.5 µM, Pt.8): 86.9412 and 90.8235 and 88.3529
MTS proliferation data value (primary AML samples; 0.75 µM, Pt.1): 15 and 14.4767 and 15.1744
MTS proliferation data value (primary AML samples; 0.75 µM, Pt.2): 23.4136 and 22.1007 and 24.5077
MTS proliferation data value (primary AML samples; 0.75 µM, Pt.3): 39.8217 and 43.685 and 41.9019
MTS proliferation data value (primary AML samples; 0.75 µM, Pt.4): 52.2229 (2×) and 53.7423
MTS proliferation data value (primary AML samples; 0.75 µM, Pt.5): 64.4914 and 65.8349 (2×)
MTS proliferation data value (primary AML samples; 0.75 µM, Pt.6): 26.5106 and 39.426 and 36.7069
MTS proliferation data value (primary AML samples; 0.75 µM, Pt.7): 37.1407 and 39.8638 and 33.2829
MTS proliferation data value (primary AML samples; 0.75 µM, Pt.8): 77.0588 (2×) and 79.1765
MTS proliferation data value (primary AML samples; 1 µM, Pt.1): 14.4767 and 15.5233 and 13.7791
MTS proliferation data value (primary AML samples; 1 µM, Pt.2): 21.663 (2×) and 22.9759
MTS proliferation data value (primary AML samples; 1 µM, Pt.3): 40.1189 and 38.633 and 39.5245
MTS proliferation data value (primary AML samples; 1 µM, Pt.4): 47.327 and 51.7164 and 51.5476
MTS proliferation data value (primary AML samples; 1 µM, Pt.5): 64.6833 and 63.5317 and 66.6027
MTS proliferation data value (primary AML samples; 1 µM, Pt.6): 19.0332 and 30.5891 and 31.9486
MTS proliferation data value (primary AML samples; 1 µM, Pt.7): 33.9637 and 32.6021 and 29.879
MTS proliferation data value (primary AML samples; 1 µM, Pt.8): 72.1176 and 72.8235 (2×)
MTS proliferation data value (primary AML samples; 5 µM, Pt.1): 14.3023
MTS proliferation data value (primary AML samples; 5 µM, Pt.4): 43.444 and 45.8075 and 44.1193
MTS proliferation data value (primary AML samples; 5 µM, Pt.8): 55.5294
IC50 (primary AML samples; n = 8 samples, 96-hour treatment, read-out: median IC50 in primary AML patient samples): 0.12 µM
IC50 (primary AML samples; read-out: IC50 [95% CI], Pt. 1, 96-hour treatment): 0.023 µM
IC50 (primary AML samples; read-out: IC50 [95% CI], Pt. 2, 96-hour treatment): 0.103 µM
IC50 (primary AML samples; read-out: IC50 [95% CI], Pt. 3, 96-hour treatment): 0.085 µM
IC50 (primary AML samples; read-out: IC50 [95% CI], Pt. 4, 96-hour treatment): 0.112 µM
IC50 (primary AML samples; read-out: IC50 [95% CI], Pt. 5, 96-hour treatment): 0.129 µM
IC50 (primary AML samples; read-out: IC50 [95% CI], Pt. 6, 96-hour treatment): 0.155 µM
IC50 (primary AML samples; read-out: IC50 [95% CI], Pt. 7, 96-hour treatment): 0.169 µM
IC50 (primary AML samples; read-out: IC50 [95% CI], Pt. 8, 96-hour treatment): 0.584 µM
IC50 (CYP 3A4; substrate midazolam, read-out: CYP inhibition IC50 3A4 (Midazolam)): 42.6 µM
IC50 (CYP 3A4; substrate testosterone, read-out: CYP inhibition IC50 3A4 (testosterone)): 22.4 µM
CD11b+CD14+ cells [1]: increased
